What all share (format): cell-based, human
The subject of test [1] is ESE-1. Put plainly: ESE-1 mRNA Northern blot in LB-12 osteoblasts. To be noted: LB-12 cells. Here is the method:
U-87 Mg and U-138 Mg (human glioma), THP-1 (human monocytic), RAW 264.7 (murine monocytic), LB-12 (human osteoblast-like large T antigen transformed bone marrow stromal cells), and human chondrocytes were grown and treated with cytokines as described (Apperley, J., et al. 1990. J Bone Mineral Res. 5:S93; Goldring, M. B., et al. 1994. J Clin Invest 94:2307-16; Goldring, S. R., et al. 1983. J Bone Joint Surg 65:575-84; Libermann, T. A., et al. 1987. Embo J. 6:1627-1632).
Total RNA was harvested using QIAshreder (Qiagen) and RNeasy® Mini Kit (Quiagen) or Trizol (Gibco BRL). Poly A^+ RNA was prepared with MicroPoly(A) Pure (Ambion). Northern blots (5 μg total RNA) were hybridized using a full length ESE-1 cDNA probe as described (Oettgen, P., et al. et al. 1997, Mol Cell Biol 17:4419-33.).
Osteoblasts, the bone cells responsible for bone formation, represent another connective tissue cell target of inflammatory cytokines in joint disorders (Bogoch, E. R., and E. Moran. 1998, Can J Surg 41:264-71). […] LB-12 cells were incubated for different times in the absence or presence of IL-1β. […] Since the rapid, but transient induction of ESE-1 resembles that of immediate early genes, we tested the effect of the protein synthesis inhibitor cycloheximide which superinduces expression of certain genes due to mRNA stabilization. Cycloheximide alone had no effect, but superinduced IL-1β-mediated ESE-1 mRNA expression (FIG. 11d).

In another test the test system is COL2A1. Put plainly: COL2A1 mRNA time course in C-28/I2 chondrocytes. To be noted: earlier time points.
In test [2] the test system is ESE-1. Briefly: ESE-1 mRNA time course in C-28/I2 chondrocytes. To be noted: 10 μg/ml, absence or presence of IL-1β, up through 8 h. Here is the method:
The immortalized human chondrocyte cell lines T/C-28a2 and C-28/I2 (Goldring M B, et al., J Clin Invest 1994;94:2307-16) were cultured in Dulbecco's modified Eagle's medium (DMEM)/Ham's F12 (1/1, v/v; Life Technologies) containing 10% fetal calf serum (FCS; Biowhitaker) and passaged using trypsin-EDTA solution (Life Technologies) at >95% confluency every 5 to 6 days. The temperature-sensitive tsT/AC62 cells (Robbins J R, et al., Arthritis Rheum 2000;43:2189-201) were grown in DMEM/Ham's F12 (1/1, v/v) supplemented with 10% FCS, 10 IU/ml penicillin, 100 μg/ml streptomycin and maintained at 32° C. in 5% CO2 and the culture medium was changed every 3 to 4 days. The cells were grown to confluence and passaged by treatment with trypsin/EDTA as described previously (Robbins J R, et al., Arthritis Rheum 2000;43:2189-201). Suspensions of tsT/AC62 were embedded in alginate and cultured for X days. […]
We first examined the time course of ESE-1 expression at the mRNA level in the C-28/I2 human chondrocyte cell line after treatment with IL-1β for periods of time between 0.5 and 24 h (FIG. 17). In IL-1β-treated quiescent cultures, ESE-1 mRNA was detected at 30 min, increased to peak levels within 4 h, and declined gradually thereafter. […]

Turning to `C[C@@H]1C[C@@H]([C@H](O)CC2CC(=O)NC(=O)C2)C(=O)[C@@H](C)C1` [Cycloheximide, cycloheximide], the “IL-1β-mediated ESE-1 mRNA expression in presence of agent” value with ESE-1 [1] was “superinduced”. The “ESE-1 mRNA expression, agent alone” value with ESE-1 [1] (1, 2, 6, 24 hours) is “had no effect”. The “IL-1β inhibition of COL2A1 mRNA in presence of agent” value in the test with COL2A1 is “appeared to abolish this inhibition”. For the same compound, the “ESE-1 mRNA levels in presence of agent” value in the test with ESE-1 [2] was “stabilized the levels of ESE-1 mRNA and augmented control and IL-1β-stimulated expression”.

Source of the values: patent publication US6869929B2, “Use of transcription factors for treating inflammation and other diseases” (Beth Israel Deaconess Medical Center, priority 2000, dated 2005).
